Measurements as given in US20020137929A1, “1 - (3-heterocyclylphenyl) isothiourea, -isourea, -guanidine and -amidine herbicidal agents” (Intellectual Property Department, BASF Aktiengesellschaft, priority 1998, published 2002).

Tests used:
[1] = test system: AMBEL (Ragweed, Common); experiment: Preemergence herbicidal evaluation; format: in vivo, Ambrosia artemisifolia; details: rated 4-5 weeks after treatment
In short: (§1)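 Test compound, dissolved in aqueous acetone, was sprayed over planted soil cups at an equivalent of about 0.0156 to 0.500 kg/ha; seeds had been mixed with potting soil. Greenhouse growth followed, with visual 0-9 scoring of injury at four to five weeks.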

[2] = test system: CHEAL (Lambsquarters, Common); experiment: Postemergence herbicidal evaluation; format: in vivo, Chenopodium album; details: postemergence
In short: (§2)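 Herbicidal effect was judged by eye on a 0–9 scale covering stand, vigor, deformity, size and chlorosis, compared with controls, four to five weeks after seedlings about two weeks old were sprayed (40 psi, ~0.0156–0.500 kg/ha).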

[3] = test system: SETVI (Foxtail, Green); experiment: Postemergence herbicidal evaluation; format: in vivo, Setaria viridis; details: postemergence
In short: as §2

[4] = test system: ABUTH (Velvetleaf); experiment: Postemergence herbicidal evaluation; format: in vivo, Abutilon theophrasti; details: postemergence
In short: as §2

[5] = test system: TRZAWR (Wheat, Winter, cv Riband); experiment: Postemergence herbicidal evaluation; format: in vivo, Triticum aestivum; details: postemergence
In short: as §2

[6] = test system: CYPIR (Rice Flatsedge); experiment: Preemergence weed control under flooded paddy conditions; format: in vivo, Cyperus iria; details: rated 3-4 weeks after treatment
In short: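 First, seeds or propagules go into the top 0.5 cm of silt loam; next, water is held 1.5 to 3 cm over the soil; then compound (50/50 acetone/water) is pipetted into it at about 0.0313 to 0.500 kg/ha; finally plants are rated visually 0-9 after three to four weeks.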

[7] = test system: ZEAMX (Corn, Field); experiment: Postemergence herbicidal evaluation; format: in vivo, Zea mays; details: postemergence
In short: as §2

[8] = test system: GALAP (Galium); experiment: Preemergence herbicidal evaluation; format: in vivo, Galium aparine; details: rated 4-5 weeks after treatment
In short: as §1

[9] = test system: GLXMAW (Soybean, Williams); experiment: Postemergence herbicidal evaluation; format: in vivo, Glycine max, (L.) Merr. cv Williams; details: postemergence
In short: as §2

[10] = test system: ORYSAT (Rice, Tebonnet); experiment: Postemergence herbicidal evaluation; format: in vivo, Oryza sativa, (L.) Tebonnet; details: postemergence
In short: as §2

[11] = test system: SETVI (Foxtail, Green); experiment: Preemergence herbicidal evaluation; format: in vivo, Setaria viridis; details: rated 4-5 weeks after treatment
In short: as §1

[12] = rate 0.0156 kg/ha, rating scale 0-9
[13] = rate 0.0313 kg/ha, rating scale 0-9
[14] = rate 0.0625 kg/ha, rating scale 0-9
[15] = rate 0.1250 kg/ha, rating scale 0-9
[16] = rate 0.2500 kg/ha, rating scale 0-9

Cn1c(C(F)(F)F)cc(=O)n(-c2cc(N=C3SCC(=O)N3CC(=O)OCC3CC3)c(Cl)cc2F)c1=O [Compound 124, Cyclopropylmethyl 2-{{2-chloro-5-[3,6-dihydro-3-methyl-2,6-dioxo-4-(trifluoromethyl)-1(2H)-pyrimidinyl]-4-fluorophenyl}imino}-4-oxo-3-thiazolidineacetate]
Preemergence herbicidal rating AMBEL ([1]; rate 0.0156 kg/ha): 0.0 | Preemergence herbicidal rating AMBEL ([1]; rate 0.0313 kg/ha): 0.0 | Preemergence herbicidal rating AMBEL ([1]; rate 0.0625 kg/ha): 4.0 | Preemergence herbicidal rating AMBEL ([1]; rate 0.1250 kg/ha): 9.0 | Preemergence herbicidal rating AMBEL ([1]; rate 0.2500 kg/ha): 9.0 | Preemergence herbicidal rating AMBEL ([1]; rate 0.5000 kg/ha): 9.0 | herbicidal rating CHEAL ([2]; rate 0.0156 kg/ha): 9.0 | herbicidal rating CHEAL ([2]; rate 0.0313 kg/ha): 9.0 | herbicidal rating CHEAL ([2]; rate 0.0625 kg/ha): 9.0 | herbicidal rating SETVI ([3]; rate 0.0156 kg/ha): 3.0 | herbicidal rating SETVI ([3]; rate 0.0313 kg/ha): 5.0 | herbicidal rating SETVI ([3]; rate 0.0625 kg/ha): 5.0 | herbicidal rating ABUTH ([4]; rate 0.0156 kg/ha): 7.0 | herbicidal rating ABUTH ([4]; rate 0.0313 kg/ha): 9.0 | herbicidal rating ABUTH ([4]; rate 0.0625 kg/ha): 9.0 | herbicidal rating TRZAWR ([5]; rate 0.0156 kg/ha): 3.7 | herbicidal rating TRZAWR ([5]; rate 0.0313 kg/ha): 4.3 | herbicidal rating TRZAWR ([5]; rate 0.0625 kg/ha): 5.0 | herbicidal effect rating, CYPIR ([6]; 0.0313 kg/ha): 0.0 | herbicidal effect rating, CYPIR ([6]; 0.0625 kg/ha): 0.0 | herbicidal effect rating, CYPIR ([6]; 0.1250 kg/ha): 0.0 | herbicidal effect rating, CYPIR ([6]; 0.2500 kg/ha): 6.0 | herbicidal rating ZEAMX ([7]; rate 0.0156 kg/ha): 6.3 | herbicidal rating ZEAMX ([7]; rate 0.0313 kg/ha): 7.3 | herbicidal rating ZEAMX ([7]; rate 0.0625 kg/ha): 8.0 | Preemergence herbicidal rating GALAP ([8]; rate 0.0156 kg/ha): 0.0 | Preemergence herbicidal rating GALAP ([8]; rate 0.0313 kg/ha): 0.0 | Preemergence herbicidal rating GALAP ([8]; rate 0.0625 kg/ha): 0.0 | Preemergence herbicidal rating GALAP ([8]; rate 0.1250 kg/ha): 0.0 | Preemergence herbicidal rating GALAP ([8]; rate 0.2500 kg/ha): 6.0 | Preemergence herbicidal rating GALAP ([8]; rate 0.5000 kg/ha): 7.0 | herbicidal rating GLXMAW ([9]; rate 0.0156 kg/ha): 6.7 | herbicidal rating GLXMAW ([9]; rate 0.0313 kg/ha): 7.3 | herbicidal rating GLXMAW ([9]; rate 0.0625 kg/ha): 7.0 | herbicidal rating ORYSAT ([10]; rate 0.0156 kg/ha): 3.3 | herbicidal rating ORYSAT ([10]; rate 0.0313 kg/ha): 3.0 | herbicidal rating ORYSAT ([10]; rate 0.0625 kg/ha): 3.0 | Preemergence herbicidal rating SETVI ([11]; rate 0.0156 kg/ha): 0.0 | Preemergence herbicidal rating SETVI ([11]; rate 0.0313 kg/ha): 0.0 | Preemergence herbicidal rating SETVI ([11]; rate 0.0625 kg/ha): 0.0 | Preemergence herbicidal rating SETVI ([11]; rate 0.1250 kg/ha): 0.0 | Preemergence herbicidal rating SETVI ([11]; rate 0.2500 kg/ha): 4.0 | Preemergence herbicidal rating SETVI ([11]; rate 0.5000 kg/ha): 9.0

Cc1ccc(CN2C(=O)CSC2=Nc2cc(-n3c(=O)cc(C(F)(F)F)n(C)c3=O)c(F)cc2Cl)cc1C [Compound 147, 3-{4-Chloro-5-{[3-(3,4-dimethylbenzyl)-4-oxo-2-thiazolidinylidene]amino}-2-fluorophenyl}-1-methyl-6-(trifluoromethyl)-2,4(1H,3H)-pyrimidinedione]
Preemergence herbicidal rating AMBEL [1, 12]: 0.0 | Preemergence herbicidal rating AMBEL [1, 13]: 0.0 | Preemergence herbicidal rating AMBEL [1, 14]: 0.0 | Preemergence herbicidal rating AMBEL [1, 15]: 1.0 | Preemergence herbicidal rating AMBEL [1, 16]: 4.0 | herbicidal rating CHEAL ([2]; rate 0.0156 kg/ha): 5.0 | herbicidal rating CHEAL ([2]; rate 0.0313 kg/ha): 6.0 | herbicidal rating CHEAL ([2]; rate 0.0625 kg/ha): 9.0 | herbicidal rating SETVI ([3]; rate 0.0156 kg/ha): 1.0 | herbicidal rating SETVI ([3]; rate 0.0313 kg/ha): 1.0 | herbicidal rating SETVI ([3]; rate 0.0625 kg/ha): 2.0 | herbicidal rating ABUTH ([4]; rate 0.0156 kg/ha): 9.0 | herbicidal rating ABUTH ([4]; rate 0.0313 kg/ha): 9.0 | herbicidal rating ABUTH ([4]; rate 0.0625 kg/ha): 9.0 | herbicidal rating TRZAWR ([5]; rate 0.0156 kg/ha): 2.5 | herbicidal rating TRZAWR ([5]; rate 0.0313 kg/ha): 3.5 | herbicidal rating TRZAWR ([5]; rate 0.0625 kg/ha): 4.0 | herbicidal effect rating, CYPIR ([6]; 0.0313 kg/ha): 4.0 | herbicidal effect rating, CYPIR ([6]; 0.0625 kg/ha): 4.0 | herbicidal effect rating, CYPIR ([6]; 0.1250 kg/ha): 7.0 | herbicidal effect rating, CYPIR ([6]; 0.2500 kg/ha): 7.0 | herbicidal rating ZEAMX ([7]; rate 0.0156 kg/ha): 4.0 | herbicidal rating ZEAMX ([7]; rate 0.0313 kg/ha): 4.5 | herbicidal rating ZEAMX ([7]; rate 0.0625 kg/ha): 4.5 | Preemergence herbicidal rating GALAP [8, 12]: 0.0 | Preemergence herbicidal rating GALAP [8, 13]: 0.0 | Preemergence herbicidal rating GALAP [8, 14]: 0.0 | Preemergence herbicidal rating GALAP [8, 15]: 1.0 | Preemergence herbicidal rating GALAP [8, 16]: 1.0 | herbicidal rating GLXMAW ([9]; rate 0.0156 kg/ha): 5.5 | herbicidal rating GLXMAW ([9]; rate 0.0313 kg/ha): 5.5 | herbicidal rating GLXMAW ([9]; rate 0.0625 kg/ha): 6.0 | herbicidal rating ORYSAT ([10]; rate 0.0156 kg/ha): 1.5 | herbicidal rating ORYSAT ([10]; rate 0.0313 kg/ha): 2.5 | herbicidal rating ORYSAT ([10]; rate 0.0625 kg/ha): 3.5 | Preemergence herbicidal rating SETVI [11, 12]: 1.0 | Preemergence herbicidal rating SETVI [11, 13]: 0.0 | Preemergence herbicidal rating SETVI [11, 14]: 0.0 | Preemergence herbicidal rating SETVI [11, 15]: 1.0 | Preemergence herbicidal rating SETVI [11, 16]: 4.0

COc1ccc(CN2C(=O)CSC2=Nc2cc(-n3c(=O)cc(C(F)(F)F)n(C)c3=O)c(F)cc2Cl)c(OC)c1 [Compound 139, 3-{4-Chloro-5-{[3-(2,4-dimethoxybenzyl)-4-oxo-2-thiazolidinylidene]amino}-2-fluorophenyl}-1-methyl-6-(trifluoromethyl)-2,4(1H,3H)-pyrimidinedione]
Preemergence herbicidal rating AMBEL [1, 12]: 0.0 | Preemergence herbicidal rating AMBEL [1, 13]: 1.0 | Preemergence herbicidal rating AMBEL [1, 14]: 0.0 | Preemergence herbicidal rating AMBEL [1, 15]: 3.0 | Preemergence herbicidal rating AMBEL [1, 16]: 4.0 | herbicidal rating CHEAL ([2]; rate 0.0156 kg/ha): 9.0 | herbicidal rating CHEAL ([2]; rate 0.0313 kg/ha): 9.0 | herbicidal rating CHEAL ([2]; rate 0.0625 kg/ha): 9.0 | herbicidal rating SETVI ([3]; rate 0.0156 kg/ha): 2.0 | herbicidal rating SETVI ([3]; rate 0.0313 kg/ha): 2.0 | herbicidal rating SETVI ([3]; rate 0.0625 kg/ha): 5.0 | herbicidal rating ABUTH ([4]; rate 0.0156 kg/ha): 9.0 | herbicidal rating ABUTH ([4]; rate 0.0313 kg/ha): 9.0 | herbicidal rating ABUTH ([4]; rate 0.0625 kg/ha): 9.0 | herbicidal rating TRZAWR ([5]; rate 0.0156 kg/ha): 2.5 | herbicidal rating TRZAWR ([5]; rate 0.0313 kg/ha): 3.0 | herbicidal rating TRZAWR ([5]; rate 0.0625 kg/ha): 3.5 | herbicidal effect rating, CYPIR ([6]; 0.0313 kg/ha): 2.0 | herbicidal effect rating, CYPIR ([6]; 0.0625 kg/ha): 4.0 | herbicidal effect rating, CYPIR ([6]; 0.1250 kg/ha): 5.0 | herbicidal effect rating, CYPIR ([6]; 0.2500 kg/ha): 6.0 | herbicidal rating ZEAMX ([7]; rate 0.0156 kg/ha): 4.5 | herbicidal rating ZEAMX ([7]; rate 0.0313 kg/ha): 4.5 | herbicidal rating ZEAMX ([7]; rate 0.0625 kg/ha): 5.0 | Preemergence herbicidal rating GALAP [8, 12]: 0.0 | Preemergence herbicidal rating GALAP [8, 13]: 0.0 | Preemergence herbicidal rating GALAP [8, 14]: 0.0 | Preemergence herbicidal rating GALAP [8, 15]: 0.0 | Preemergence herbicidal rating GALAP [8, 16]: 0.0 | herbicidal rating GLXMAW ([9]; rate 0.0156 kg/ha): 5.5 | herbicidal rating GLXMAW ([9]; rate 0.0313 kg/ha): 6.5 | herbicidal rating GLXMAW ([9]; rate 0.0625 kg/ha): 7.0 | herbicidal rating ORYSAT ([10]; rate 0.0156 kg/ha): 2.0 | herbicidal rating ORYSAT ([10]; rate 0.0313 kg/ha): 3.0 | herbicidal rating ORYSAT ([10]; rate 0.0625 kg/ha): 3.5 | Preemergence herbicidal rating SETVI [11, 12]: 0.0 | Preemergence herbicidal rating SETVI [11, 13]: 0.0 | Preemergence herbicidal rating SETVI [11, 14]: 0.0 | Preemergence herbicidal rating SETVI [11, 15]: 1.0 | Preemergence herbicidal rating SETVI [11, 16]: 7.0
